# Results published in patent US8318684B2, “Antibiotics, bispolides A1, A2, and A3 as well as bispolides B1, B2a, B2b and B3 and processes for producing said antibiotics” (Nimura Genetic Solutions Co., Ltd., priority 2006, dated 2012).
# Assays:
# [1] = Solubility (physicochemical properties)
# [2] = tested on: MRSA ngs1 (methicillin-resistant strain of Staphylococcus aureus); test: Antibacterial spectrum, standard serial dilution method in liquid medium; format: cell-based; conditions: bacto-yeast nitrogen base-glucose-NZ-amine liquid medium, read-out: Minimum growth inhibitory concentration
# Experimental: (§1) The antibacterial spectra of a bispolide A compound and a bispolide B compound were tested on a liquid medium consisting of bacto-yeast nitrogen base (a product of Difco Laboratories)-glucose-NZ-amine by a standard serial dilution method.
# [3] = tested on: Staphylococcus aureus FDA209P; test: as above; format: cell-based; conditions: bacto-yeast nitrogen base-glucose-NZ-amine liquid medium, read-out: Minimum growth inhibitory concentration
# Experimental: as §1
# [4] = tested on: MRSA ngs2 (methicillin-resistant strain of Staphylococcus aureus); test: as above; format: cell-based; conditions: bacto-yeast nitrogen base-glucose-NZ-amine liquid medium, read-out: Minimum growth inhibitory concentration
# Experimental: as §1
# [5] = tested on: Bacillus subtilis PCI 219; test: as above; format: cell-based; conditions: PCI219, bacto-yeast nitrogen base-glucose-NZ-amine liquid medium, read-out: Minimum growth inhibitory concentration
# Experimental: as §1
# [6] = in 50% aqueous ethanol (ethanol:water 1:1 by volume)
# [7] = in methanol, ethanol, dimethylsulfoxide (DMSO), acetone and ethyl acetate
Compound,"Solubility [1, 6]","Solubility [1, 7]",Solubility ([1]; in water and n-hexane),MIC [2] [µg/mL],MIC [3] [µg/mL],MIC [4] [µg/mL],MIC [5] [µg/mL]
CCC1=C\C=C\C(CC)C(C(C)C(O)CC2(O)CC(OC3CC(O)C(O)C(C)O3)C(CC)C(C)O2)OC(=O)/C=C/C(CC)=C/C=C/C(CC)C(C(C)C(O)CC2(O)CC(OC3CC(O)C(O)C(C)O3)C(CC)C(C)O2)OC(=O)\C=C\1 (stereo not shown) [bispolide A1],sparlingly soluble,Soluble well,insoluble,12.5,1.56,≤ 0.049,0.39
CCC1=C\C=C\C(CC)C(C(C)C(O)CC2(OC)CC(OC3CC(O)C(O)C(C)O3)C(CC)C(C)O2)OC(=O)/C=C/C(CC)=C/C=C/C(CC)C(C(C)C(O)CC2(O)CC(OC3CC(O)C(O)C(C)O3)C(CC)C(C)O2)OC(=O)\C=C\1 (stereo not shown) [bispolide A2],sparlingly soluble,Soluble well,insoluble,1.56,1.56,3.13,0.78
CCC1=C\C=C\C(CC)C(C(C)C(O)CC2(OC)CC(OC3CC(O)C(O)C(C)O3)C(CC)C(C)O2)OC(=O)/C=C/C(CC)=C/C=C/C(CC)C(C(C)C(O)CC2(OC)CC(OC3CC(O)C(O)C(C)O3)C(CC)C(C)O2)OC(=O)\C=C\1 (stereo not shown) [bispolide A3],sparlingly soluble,Soluble well,insoluble,1.56,1.56,3.13,0.78
CCC1=C\C=C\C(CC)C(C(C)C(O)CC2(O)CC(OC3OC(C)C(O)C(O)C3O)C(CC)C(C)O2)OC(=O)/C=C/C(CC)=C/C=C/C(CC)C(C(C)C(O)CC2(O)CC(OC3CC(O)C(O)C(C)O3)C(CC)C(C)O2)OC(=O)\C=C\1 (stereo not shown) [bispolide B1],sparingly soluble,Soluble well,insoluble,0.39,1.56,≤ 0.049,0.2
CCC1=C\C=C\C(CC)C(C(C)C(O)CC2(OC)CC(OC3CC(O)C(O)C(C)O3)C(CC)C(C)O2)OC(=O)/C=C/C(CC)=C/C=C/C(CC)C(C(C)C(O)CC2(O)CC(OC3OC(C)C(O)C(O)C3O)C(CC)C(C)O2)OC(=O)\C=C\1 (stereo not shown) [bispolide B2a],sparingly soluble,Soluble well,insoluble,1.56,1.56,1.56,0.39
CCC1=C\C=C\C(CC)C(C(C)C(O)CC2(OC)CC(OC3OC(C)C(O)C(O)C3O)C(CC)C(C)O2)OC(=O)/C=C/C(CC)=C/C=C/C(CC)C(C(C)C(O)CC2(O)CC(OC3CC(O)C(O)C(C)O3)C(CC)C(C)O2)OC(=O)\C=C\1 (stereo not shown) [bispolide B2b],sparingly soluble,Soluble well,insoluble,1.56,0.78,3.13,0.39
CCC1=C\C=C\C(CC)C(C(C)C(O)CC2(OC)CC(OC3OC(C)C(O)C(O)C3O)C(CC)C(C)O2)OC(=O)/C=C/C(CC)=C/C=C/C(CC)C(C(C)C(O)CC2(OC)CC(OC3CC(O)C(O)C(C)O3)C(CC)C(C)O2)OC(=O)\C=C\1 (stereo not shown) [bispolide B3],sparingly soluble,Soluble well,insoluble,1.56,1.56,3.13,0.78
